Test results published in US7666989B2 (priority 2003, dated 2010).
Converted amounts (≈) assume the structure as drawn. Marks after values point to notes of the source that are not given here.

How the values were obtained:
[1] = tested on: HL-60 (human promyelocytic leukemia cell); assay: MTT cytotoxicity, HL-60; format: cell-based; conditions: 96 h, 4 days
Text: (§1) Reagents: RPMI1640 is from GIBCO; MTT is from Bebco. Fetal bovine serum is purchased from Hangzhou SiJiQing Bioengineering Material Co. Ltd. (P. R. China).
(§2) Cell lines: COLO 205 (human colon cancer cell), NCI-H460 (human lung cancer cell), RPMI 8226 (human multiple myeloma cell), U251 (human brain glioma cell) are from ATCC, USA. HL-60 (human promyelocytic leukemia cell), MDA-MB-231, MDA-MB-435 (human breast cancer cell), SCLC (human small-cell lung cancer cell), H125 (human lung cancer cell) and PC-3 (human […] cancer cell).
(§3) The well-grown tumor cells were collected to prepare a cell suspension (1×10^4/ml) with RPMI 1640 medium containing 10% fetal bovine serum. The cell suspension was inoculated into a 96-well plate, 100 μL (containing 1000 tumor cells) per well. The plate was cultured in a 5% CO2 incubator at 37° C. for 24 hours, followed by addition of medicament.
(§4) A blank control and a positive control using 5-fluorouracil or adriamycin are employed in the experiment. […]
(§5) The supernatant was discarded. […] After gently shaking, the OD values were measured by a BIORAD 550 enzyme analyzer, with the detection wavelength being 540 nm and the reference wavelength being 450 nm.
(§6) Dose-response curves were generated by plotting with the cell inhibition rates and different concentrations of medicament, and the half inhibitory concentrations (IC50) were calculated.

[2] = tested on: human brain glioma U251
Text: (§7) In this example, the animals used were BALB/c-nu nude mice, 6-8 weeks old. For each experiment, all animals were of the same sex.
(§8) Tumor cell lines: human brain glioma U251, human lung cancer cell line NCI-H460, human colon cancer cell line COLO205 were inoculated from in vitro culture into nude mice subcutaneously, the tumors were subcultured and kept.
(§9) Experimental Procedures: well-grown nude mice carrying well-grown tumors were selected and sacrificed by disjointing neck vertebra. The tumors were removed aseptically and were cut into pieces having a diameter of 2-3 mm by a scalpel. The pieces were inoculated into the axilla of nude mice subcutaneously by a needle. […] The length and width of tumors were measured by a vernier caliper. The animals were then grouped based their tumor sizes. Each group included seven to eight animals.
(§10) The length, width of the tumor and the body weight of the mice were measured twice per week. The tumor volume (TV) and relative tumor volume (RTV) were calculated. A graph indicating the changes of tumor size was plotted. At the end of this experiment, the tumors were taken out and weighed after the mice were sacrificed, and the inhibition rates of the medicament on tumor growth were calculated.
(§11) The formula for calculating tumor volume (TV) is: length×width^2÷2.
(§12) The formula for calculating relative tumor volume (RTV) is: Vt/Vo (wherein Vo is the TV value measured when the administration is started, Vt is the TV value measured after that).
(§13) T-test was used to determine the statistical difference of tumor weights, tumor volumes and RTV etc. between different groups of animal. The index used for evaluating the anti-tumor activity is the relative tumor growth rate T/C (%), the formula for which is: […]
(§14) The evaluation standard for efficacy:
(§15) T/C (%)>60 is ineffective;
(§16) T/C (%)≦60 and P<0.05 after statistical analysis is effective.
The Carmustine (Renmin Pharmaceuticals, Amino Acid Inc. Tianjin, P. R. China) was used as the positive control, 40 mg/kg, administered by intraperitoneal injection for once. CPT was given to four groups at the doses of 0.6 mg/kg, 1.7 mg/kg, 5.0 mg/kg, 15.0 mg/kg respectively, administered by intraperitoneal injection. The treatment included ten injections.

[3] = tested on: human lung cancer NCI-H460; assay: Growth of human lung cancer NCI-H460 xenograft in nude mice; format: in vivo, BALB/c-nu nude mice; conditions: Cyclophosphamide 100 mg/kg i.p., then 80 mg/kg two weeks later
Description: The animals were then grouped based their tumor sizes. Each group included seven to eight animals.
as §14, §15
One additional injection was given at 80 mg/kg two weeks later. […] The treatment contained a total of ten injections.

[4] = tested on: RPMI 8226 (human multiple myeloma cell); assay: MTT cytotoxicity, RPMI 8226; format: cell-based; conditions: Homo sapiens, 96 h, 4 days, read-out: IC50
Text: as §1, §2, §3, §4, §5, §6

[5] = tested on: PC-3 (human cancer cell); assay: MTT cytotoxicity, PC-3; format: cell-based; conditions: Homo sapiens, 96 h, 4 days
Text: as §1, §2, §3, §4, §5, §6

[6] = tested on: H125 (human lung cancer cell); assay: MTT cytotoxicity, H125; format: cell-based; conditions: Homo sapiens, NCI-H125, 96 h, 4 days, read-out: IC50
Text: as §1, §2, §3, §4, §5, §6

[7] = tested on: NCI-H460 (human lung cancer cell); assay: MTT cytotoxicity, NCI-H460; format: cell-based; conditions: 96 h, 4 days
Text: as §1, §2, §3, §4, §5, §6

[8] = tested on: U251 (human brain glioma cell); assay: MTT cytotoxicity, U251; format: cell-based; conditions: U-251, 96 h, 4 days
Text: as §1, §2, §3, §4, §5, §6

[9] = tested on: MDA-MB-231 (human breast cancer cell); assay: MTT cytotoxicity, MDA-MB-231; format: cell-based; conditions: 96 h, 4 days
Text: as §1, §2, §3, §4, §5, §6

[10] = tested on: MDA-MB-435 (human breast cancer cell); assay: MTT cytotoxicity, MDA-MB-435; format: cell-based; conditions: Homo sapiens, 96 h, 4 days, read-out: IC50
Text: as §1, §2, §3, §4, §5, §6

[11] = tested on: COLO 205 (human colon cancer cell); assay: MTT cytotoxicity, COLO 205; format: cell-based; conditions: Homo sapiens, 96 h, 4 days, read-out: IC50
Text: as §1, §2, §3, §4, §5, §6

[12] = tested on: SCLC (human small-cell lung cancer cell); assay: MTT cytotoxicity, SCLC; format: cell-based; conditions: Homo sapiens, 96 h, 4 days, read-out: IC50
Text: as §1, §2, §3
A blank control and a positive control using 5-fluorouracil or adriamycin are employed in the experiment. The CPT samples have five concentrations, three parallel wells for each concentration. The cells were cultured in an incubator with 5% CO2 at 37° C. for 4 days. Then the culture medium was removed and 100 μL MTT solution (0.4 mg/ml in RPMI 1640) was added to each well. The plate was incubated at 37° C. for four additional hours.
The supernatant was discarded. 150 μl DMSO was added into each well in order to solubilize Fomazan granulates. After gently shaking, the OD values were measured by a BIORAD 550 enzyme analyzer, with the detection wavelength being 540 nm and the reference wavelength being 450 nm.
as §6

[13] = tested on: human colon cancer COLO 205; conditions: COLO 205 xenograft, hydroxycamptothecin 1 mg/kg i.p. once per day 15 days, then further courses
Text: as §7, §8, §9, §10, §11, §12, §13, §14, §15, §16
Injectable hydroxycamptothecin (trade name: Xi Su, Wuhan Lishizhen Pharmaceuticals Inc., Huangshi Lishizhen Pharmaceuticals Group, P. R. China) was used as positive control, administered by intraperitoneal injection at the dose of 1 mg/kg, once per day. The administration was terminated after 15 consecutive days of administration. […] A single administration of 80 mg/kg hydroxycamptothecin was further given after two weeks. CPT was given to three treatment groups at the doses of 1.7 mg/kg, 5.0 mg/kg, 15.0 mg/kg respectively by intraperitoneal injection, once per day. The treatment contained a total of 15 injections.

[14] = U251 xenograft, Carmustine 40 mg/kg i.p. once

## COc1cccc2c1C(=O)c1c(O)c3c(c(O)c1C2=O)C[C@@](O)(C(=O)CO)C[C@@H]3O[C@H]1C[C@H](N)[C@H](O)[C@H](C)O1 [Adr, Adriamycin]
[1]
  IC50: 0.006 µg/mL (≈ 0.011 µM)

## O=NN(CCCl)C(=O)NCCCl [Carmustine, reference compound]
[2]; [14]
  RTV: 0.54 ± 0.29
  T/C (%): 16.0%
  Tumor volume (mm^3) End: 109 ± 78** mm^3
  Tumor weight: 0.09 ± 0.06 g
[2]; U251 xenograft, Carmustine 40 mg/kg i.p. once, baseline
  Tumor volume (mm^3) Start: 153 ± 35 mm^3
[2]; U251 xenograft, Carmustine 40 mg/kg i.p. once, by tumor weight
  Inhibition rate (%): 93.0%
[2]; mouse, in vivo
  Body Weight (g) End: 19.4 ± 2.1 g
  Body Weight (g) Start: 22.8 ± 0.7 g

## O=P1(N(CCCl)CCCl)NCCCO1 (stereo not shown) [Cyclophosphamide, reference compound]
[3]
  Body Weight (g) End: 16.1 ± 2.2 g
  RTV: 3.67 ± 2.15
  T/C (%): 61.4%
  Tumor volume (mm^3) End: 1121 ± 434 mm^3
  Tumor weight: 0.96 ± 0.35 g
[3]; baseline
  Body Weight (g) Start: 20.0 ± 1.3 g
  Tumor volume (mm^3) Start: 179 ± 52 mm^3
[3]; by tumor weight
  Inhibition rate (%): 40.4%

## O=c1[nH]cc(F)c(=O)[nH]1 [Fu, 5-fluorouracil, reference compound]
[4]
  IC50: < 0.1 µg/mL
[5]
  IC50: 4.93 ± 0.753 µg/mL (≈ 37.9 µM)
[6]
  IC50: 0.138 ± 0.031 µg/mL (≈ 1.06 µM)
[7]
  IC50: 0.566 ± 0.016 µg/mL (≈ 4.35 µM)
[8]
  IC50: 0.981 ± 0.077 µg/mL (≈ 7.54 µM)
[9]
  IC50: 0.318 ± 0.055 µg/mL (≈ 2.44 µM)
[10]
  IC50: 0.199 ± 0.138 µg/mL (≈ 1.53 µM)
[11]
  IC50: 0.826 ± 0.051 µg/mL (≈ 6.35 µM)
[12]
  IC50: 0.617 ± 0.0257 µg/mL (≈ 4.74 µM)

## CC[C@@]1(O)C(=O)OCc2c1cc1n(c2=O)Cc2cc3cc(O)ccc3nc2-1 [Hydroxycamptothecin, hydroxycamptothecin, reference compound]
[13]
  Body Weight (g) End: 21.0 ± 2.5 g
  RTV: 3.92 ± 1.91
  T/C (%): 47.2%
  Tumor volume (mm^3) End: 845 ± 66** mm^3
  Tumor weight: 0.66 ± 0.26 g
[13]; baseline
  Body Weight (g) Start: 20.4 ± 0.9 g
  Tumor volume (mm^3) Start: 150 ± 34 mm^3
[13]; by tumor weight
  Inhibition rate (%): 66.3%
